Residue numbers refer to the chain shown, from its start. Residues, ends and D or L forms follow the SMILES beside them.

Test [1] deals with T1, Src SH2 domain (Homo sapiens, UniProt P12931). More on the design: method as in earlier work. Conditions: SH2 protein microarray; N.B. = non binding; read-out: Protein Microarray (Macbeath) – KD; cited from earlier work.
Test [2] has as its target Grb7 SH2 domain. More on the design: method as in earlier work. As to conditions: SH2 protein microarray; N.B. = non binding; read-out: Protein Microarray (Macbeath) – KD; cited from earlier work.
Test [3] concerns the target T1, Src SH2 domain. Put plainly: SPOT peptide array. It counts as binding. As to conditions: spot intensity as factor of array mean; GST-SH2 0.25 μM. The procedure, abridged:
(§1)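 Peptides were synthesized by SPOT on cellulose as 11-mers with the phosphotyrosine fifth, about 5 nmol each. GST–SH2 domain fusions were then incubated on the arrays and visualized via anti-GST and near-infrared secondary antibodies. Peptides binding GST alone above mean in two of three trials were flagged nonspecific.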

A further test has as its target Grb2 SH2 domain (Homo sapiens, UniProt P62993). Put plainly: SPOT peptide array. It counts as binding. Conditions: spot intensity as factor of array mean; GST-SH2 0.25 μM. The gist of the method: as §1
The subject of test [4] is Grb7 SH2 domain. Put plainly: SPOT peptide array. Format: binding. Conditions: spot intensity as factor of array mean; GST-SH2 0.25 μM. The procedure, abridged:
as §1

A further test has as its target T2, Abl2 SH2 domain (Homo sapiens, UniProt P42684).
T2 sequence (P42684 173-263 limits assumed): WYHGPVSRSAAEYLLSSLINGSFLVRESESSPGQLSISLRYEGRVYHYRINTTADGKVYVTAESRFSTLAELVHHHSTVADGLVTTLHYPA
Put plainly: SPOT peptide array. Format: binding. Conditions: spot intensity as factor of array mean; GST-SH2 0.25 μM. The procedure, abridged: as §1

The target of a further test is Vav1 SH2 domain (Homo sapiens, UniProt P15498). More on the design: method as in earlier work. Conditions: N.B. = non binding; cited from earlier work.
Another test has as its target Nck1 SH2 domain (Homo sapiens, UniProt P16333). More on the design: method as in earlier work. Conditions: N.B. = non binding; cited from earlier work.
In test [5] the target is T3, Plcg2_N SH2 domain (Homo sapiens, UniProt P16885). Also noted: method as in earlier work. As to conditions: N.B. = non binding; cited from earlier work.
Test [6] deals with T4, CrkL SH2 domain (Homo sapiens, UniProt P46109). Also noted: method as in earlier work. As to conditions: N.B. = non binding; cited from earlier work.
For a further test, the target named is Crk SH2 domain (Homo sapiens, UniProt P46108). More on the design: method as in earlier work. Conditions: N.B. = non binding; cited from earlier work.
The next test has as its target Itk SH2 domain (Homo sapiens, UniProt Q08881). Put plainly: SPOT peptide array. It counts as binding. As to conditions: spot intensity as factor of array mean; GST-SH2 0.25 μM.
Test [7] relates to Yes SH2 domain. Put plainly: SPOT peptide array. Format: binding. As to conditions: spot intensity as factor of array mean; GST-SH2 0.25 μM. The procedure, abridged:
as §1

For a further test, the target named is T5, Abl1 SH2 domain (Homo sapiens, UniProt P00519).
T5 sequence (P00519 127-217 limits assumed): T2 sequence (P42684 173-263 limits assumed) with S9N, L18G, L35R, T53A, A54S, V58L, T61S, A62S, S67N, V84I
Put plainly: SPOT peptide array. As to conditions: spot intensity as factor of array mean; GST-SH2 0.25 μM. It counts as binding. The gist of the method:
as §1

For test [8], the target named is T4, CrkL SH2 domain. Put plainly: SPOT peptide array. Format: binding. As to conditions: spot intensity as factor of array mean; GST-SH2 0.25 μM. The procedure, abridged:
as §1

The target in another test is Rasa1_N SH2 domain (Homo sapiens, UniProt P20936). Put plainly: SPOT peptide array. It counts as binding. Conditions: spot intensity as factor of array mean; GST-SH2 0.25 μM.
Test [9] has as its target Yes SH2 domain. Also noted: method as in earlier work. As to conditions: SH2 protein microarray; N.B. = non binding; read-out: Protein Microarray (Macbeath) – KD; cited from earlier work.
The target of the next test is Shb SH2 domain (Homo sapiens, UniProt Q15464). Put plainly: Fluorescence polarization solution binding. Conditions: Rhodamine B-labeled peptide, GST-SH2, Beacon 2000, read-out: Affinity (KD). From the text:
(§2) To verify the binding results obtained from addressable peptide arrays we employed an orthogonal method of determining SH2 interactions with peptide ligands. We measured the dissociation constants of 60 binary SH2-peptide pairs in solution by fluorescence polarization (Table 2, Additional file 2: Figures S3A-C).
(§3) Peptides were synthesized using FMOC-chemistry onto pre-loaded tenta-gel resins. Peptides were then labeled with Rhodamine B (Abbey Color) and then cleaved using trifluoroacetic acid. Peptides were lyophilized and then purified using a LC/MS (Agilent 2100). Dissociation constants were measured using the Beacon 2000 (Invitrogen) as previously described.
(§4) Binding Affinities determined by Fluorescence Polarization. Rhodamine B-labeled peptides were mixed with varying concentrations of GST-tagged SH2 domains. Fluorescence polarization measurements were read on a Beacon 2000 (Invitrogen). The curves were fit to a Michaelis-Menten equation to calculate the dissociation constant, KD. […] (C) Affinity measurements that fell below the 2X mean intensity and were considered array negative on the SPOT array.
A general note: Polarisation of emitted light reports the rotation of a fluorescent probe.

In a further test the target is T6, Ptpn11_N SH2 domain (Homo sapiens, UniProt Q06124).
T6 sequence (Q06124 6-102 limits assumed): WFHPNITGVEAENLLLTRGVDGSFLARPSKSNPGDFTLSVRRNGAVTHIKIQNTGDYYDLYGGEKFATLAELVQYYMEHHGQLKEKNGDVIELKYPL
Put plainly: Fluorescence polarization solution binding. Conditions: Rhodamine B-labeled peptide, GST-SH2, Beacon 2000, read-out: Affinity (KD).
Source text: as §2, §3, §4

The target in another test is PI3K1_C SH2 domain (Homo sapiens, UniProt P27986). Put plainly: Fluorescence polarization solution binding. Conditions: Rhodamine B-labeled peptide, GST-SH2, Beacon 2000, read-out: Affinity (KD).
Source text: as §2, §3, §4

In a further test the target is T7, Rasa1_C SH2 domain (Homo sapiens, UniProt P20936).
T7 sequence (P20936 351-441 limits assumed): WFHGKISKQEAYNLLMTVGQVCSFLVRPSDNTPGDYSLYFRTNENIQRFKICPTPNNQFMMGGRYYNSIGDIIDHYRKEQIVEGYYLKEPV
Put plainly: Fluorescence polarization solution binding. As to conditions: Rhodamine B-labeled peptide, GST-SH2, Beacon 2000, read-out: Affinity (KD).

For the next test, the target named is Plcg2_C SH2 domain (Homo sapiens, UniProt P16885). Put plainly: Fluorescence polarization solution binding. As to conditions: Rhodamine B-labeled peptide, GST-SH2, Beacon 2000, read-out: Affinity (KD).
Source text: as §2
(§5) As noted above, this study performs well in terms of reproducing the literature reported interactions between the 50 SH2 domains tested and the 13 proteins represented on the addressable arrays (Table 1). A handful of differences with literature-reported interactions must, by necessity, be reconciled. Our assumption is that a high-throughput (HTP) study such as this one should capture upwards of 85% of known (literature reported) interactions and that results that differ from low throughput studies described in the literature should be subject to further testing to identify the nature of the discrepancy and reveal any weakness in the HTP dataset. […] For instance, FGFR1 Y-766 (SNQEpYLDLSMP) is reported to bind to PLCγ1 in a pTyr dependant manner based on mutational analysis of FGFR1 [55, 56]. […] This may imply that either this is a binding event specific to PLCγ1 (and not PLCγ2), or that the interaction reported at the level of the full-length protein may be more complex, perhaps requiring secondary contact sites that are not available within the context of the short peptide used in the current study. […] We have made an effort to limit false negatives to those of lower affinity, and we are aware of no instance in our dataset of a sub-micromolar affinity interaction being scored as array-negative.
(§6) Peptides were synthesized using FMOC-chemistry onto pre-loaded tenta-gel resins. […] Dissociation constants were measured using the Beacon 2000 (Invitrogen) as previously described.
(§7) Binding Affinities determined by Fluorescence Polarization. […] Fluorescence polarization measurements were read on a Beacon 2000 (Invitrogen). […]

In test [10] the target is T3, Plcg2_N SH2 domain. Put plainly: Fluorescence polarization solution binding. Conditions: Rhodamine B-labeled peptide, GST-SH2, Beacon 2000, read-out: Affinity (KD).
Source text: as §2, §5, §6, §7

T4 sequence (P46109 14-102 limits assumed): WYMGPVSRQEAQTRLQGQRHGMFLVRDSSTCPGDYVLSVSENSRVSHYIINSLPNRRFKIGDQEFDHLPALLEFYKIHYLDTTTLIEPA
T3 sequence (P16885 532-635 limits assumed): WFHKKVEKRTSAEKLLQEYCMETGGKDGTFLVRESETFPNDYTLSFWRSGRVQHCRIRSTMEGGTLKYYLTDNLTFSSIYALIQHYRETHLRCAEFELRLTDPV
Grb2 SH2 domain, sequence (P62993 60-152 limits assumed): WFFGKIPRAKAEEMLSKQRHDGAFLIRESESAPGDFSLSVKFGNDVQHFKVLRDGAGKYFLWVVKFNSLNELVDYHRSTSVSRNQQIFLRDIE
Plcg2_C SH2 domain, sequence (P16885 646-735 limits assumed): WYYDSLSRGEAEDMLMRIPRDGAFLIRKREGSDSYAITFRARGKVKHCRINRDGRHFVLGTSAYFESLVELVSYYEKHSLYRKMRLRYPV
Crk SH2 domain, sequence (P46108 13-118 limits assumed): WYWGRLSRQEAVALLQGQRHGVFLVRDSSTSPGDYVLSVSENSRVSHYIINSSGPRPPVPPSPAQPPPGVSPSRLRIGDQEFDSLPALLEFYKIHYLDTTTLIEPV
Rasa1_N SH2 domain, sequence (P20936 181-272 limits assumed): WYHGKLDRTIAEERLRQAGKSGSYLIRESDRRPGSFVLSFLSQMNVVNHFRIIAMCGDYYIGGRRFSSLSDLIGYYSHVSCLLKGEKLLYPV
PI3K1_C SH2 domain, sequence (P27986 624-718 limits assumed): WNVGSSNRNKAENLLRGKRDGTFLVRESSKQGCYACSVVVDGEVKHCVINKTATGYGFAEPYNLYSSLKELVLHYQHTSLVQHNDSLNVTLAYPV
Itk SH2 domain, sequence (Q08881 239-338 limits assumed): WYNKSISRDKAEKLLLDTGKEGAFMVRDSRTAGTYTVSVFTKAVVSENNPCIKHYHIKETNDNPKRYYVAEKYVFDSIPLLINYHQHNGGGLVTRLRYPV
Vav1 SH2 domain, sequence (P15498 671-765 limits assumed): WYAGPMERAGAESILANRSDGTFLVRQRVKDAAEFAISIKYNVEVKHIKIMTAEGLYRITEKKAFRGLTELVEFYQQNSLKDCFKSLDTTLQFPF
Shb SH2 domain, sequence (Q15464 410-504 limits assumed): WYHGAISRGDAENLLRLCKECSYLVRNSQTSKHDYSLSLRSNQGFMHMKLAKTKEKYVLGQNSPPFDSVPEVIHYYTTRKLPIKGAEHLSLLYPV

The Kd is the equilibrium constant for the complex coming apart. As for EIFTLGGSPpYPGVPVEED, the equilibrium dissociation constant (Kd) is 1790 nM with Src SH2 domain [1] and 650 nM at Grb7 SH2 domain [2]. Further, the “Peptide array intensity (X mean)” value at Src SH2 domain [3], on Grb2 SH2 domain, with Grb7 SH2 domain [4] and on Abl2 SH2 domain was less than 2x X Mean in each case.
For `CSCC[C@H](NC(=O)[C@@H]1CCCN1C(=O)[C@@H](N)[C@@H](C)O)C(=O)N[C@@H](CC(C)C)C(=O)N[C@@H](C)C(=O)NCC(=O)N[C@H](C(=O)N[C@@H](CO)C(=O)N[C@@H](CCC(=O)O)C(=O)N[C@@H](Cc1ccc(OP(=O)(O)O)cc1)C(=O)N[C@@H](CCC(=O)O)C(=O)N[C@@H](CC(C)C)C(=O)N1CCC[C@H]1C(=O)N[C@@H](CCC(=O)O)C(=O)N[C@@H](CC(=O)O)C(=O)N1CCC[C@H]1C(=O)N[C@@H](CCCNC(=N)N)C(=O)N[C@@H](CC(=O)O)C(=O)O)C(C)C` (HELM PEPTIDE1{T.P.M.L.A.G.V.S.E.[O=C([C@H](Cc1ccc(OP(=O)(O)O)cc1)N[*:1])[*:2]].E.L.P.E.D.P.R.D}$$$$V2.0), the “Protein Microarray (Macbeath) – KD” value on Vav1 SH2 domain, at Nck1 SH2 domain, at Plcg2_N SH2 domain [5], on CrkL SH2 domain [6] and at Crk SH2 domain was “N.B” throughout.
For the molecule “QARRPPGLEpYCYNPSHND* [FGFR1 Y583 phosphopeptide; Cys replaced with Ala or Ser on peptide arrays]”, the Kd is 1000 nM on Grb7 SH2 domain [2] and 1550 nM on Yes SH2 domain [9]. Moreover, the “Peptide array intensity (X mean)” value at Itk SH2 domain is listed as less than 2x X Mean; in the test on Yes SH2 domain [7], less than 2x X Mean; at Grb2 SH2 domain, less than 2x X Mean; at Abl1 SH2 domain, greater than 3x X Mean; in the test on Grb7 SH2 domain [4] it was greater than 3x X Mean; on Abl2 SH2 domain, less than 2x X Mean. Further, the “Peptide array intensity (X mean)” value at CrkL SH2 domain [8] and on Rasa1_N SH2 domain was less than 2x X Mean throughout.
For `CC(C)C[C@H](NC(=O)[C@H](CC(=O)O)NC(=O)[C@H](CC(C)C)NC(=O)[C@H](Cc1ccc(OP(=O)(O)O)cc1)NC(=O)[C@H](CCC(=O)O)NC(=O)[C@H](CC(=O)O)NC(=O)[C@@H](NC(=O)[C@@H](N)CO)[C@@H](C)O)C(=O)N[C@@H](CO)C(=O)N[C@@H](C)C(=O)N1CCC[C@H]1C(=O)O` [STDEpYLDLSAP], the equilibrium dissociation constant (Kd) at Shb SH2 domain is greater than 50000 nM; at Ptpn11_N SH2 domain, 25000 nM; on PI3K1_C SH2 domain, 2140 nM; at Rasa1_C SH2 domain, greater than 17000 nM; on Plcg2_C SH2 domain it was 7490 nM; at Plcg2_N SH2 domain [10], greater than 50000 nM.

(Values after paper PMC3514216, “SRC Homology 2 Domain Binding Sites in Insulin, IGF-1 and FGF receptor mediated signaling networks reveal an extensive potential interactome” (Cell Communication and Signaling : CCS, 2012).)
